Measurements from publication PMC7232676, “Fragment-Based Design of Mycobacterium tuberculosis InhA Inhibitors” (Journal of Medicinal Chemistry, 2020).
Read-outs that look alike come from different tables or passages of the source.

Experiments:
M. tuberculosis H37Ra = assay: Growth inhibition of M. tuberculosis H37Ra, 48 h cultivation; type: cell-based, Mycobacterium tuberculosis; settings: Mycobacterium tuberculosis, H37RA; 200 μM compound in the media, 48 h cultivation
Procedure: (§1) Further analysis of the effect on the synthesis of mycolic acids by metabolic labeling[24],[25] of the model strain M. tuberculosis H37Ra with ^14C acetate was also explored. A 48 h cultivation in the presence of 200 μM of the compounds in the media led to 84% growth inhibition for compound 19; 40% and 33% growth inhibition for compounds 14 and 23, respectively; 38% growth inhibition for compound 24 and isoniazid; 23% growth inhibition for compounds 25 and 26.
(§2) The culture of M. tuberculosis H37Ra was grown statically at 37 °C in Middlebrook 7H9 broth (Difco) supplemented with albumin–dextrose–catalase and 0.05% Tween 80. When the culture reached the OD600nm value of 0.290, it was divided into 10 mL aliquots and tested compounds dissolved in DMSO were added at 200 μM final concentrations, while isoniazid that served as a control inhibitor was at 40 μM. The final concentration of DMSO in each culture was at 1%. After 24 h of cultivation with shaking (120 rpm) in the presence of tested inhibitors, ^14C acetate (specific activity of 106 mCi/mmol) was added at a final concentration of 0.5 μCi/mL and the cells were cultivated for the next 24 h.

InhA = InhA (Mycobacterium tuberculosis, UniProt P9WGR1); assay: InhA enzymatic assay (NADH oxidation at 340 nm, 2-trans-octanoyl-CoA substrate); type: biochemical
Procedure: The identified fragment hits were further evaluated by an InhA enzymatic assay using 2-trans-octanoyl-CoA as a substrate.[22]
The carboxylic acid in fragment 1 (P1) was replaced by an isosteric sulfonamide as a linker to synthesize compound 6 (Figure 2b). Docking experiments with Glide XP[23] […] All the synthesized compounds were tested at a concentration of 100 μM using the InhA enzymatic assay.
InhA activity was followed by a colorimetric assay that measured the oxidation of NADH at 340 nm in the presence of 2-trans-octanoyl-CoA as described before in a buffer that contained 30 mM PIPES, pH 7.5, 50 mM NaCl, 0.1 mM EDTA, and 100 nM InhA.[26] This was preincubated for 10 min at room temperature with 0.25 mM NADH and varying concentrations of the compounds with 1% (v/v) DMSO in a 150 μL reaction volume. The reaction was started by the addition of 2-trans-octanoyl-CoA at a final concentration of 1.5 mM, prepared as described previously.[22] Reactions were followed for 20 min using a plate reader (CLARIOstar, BMG LABTECH).

[1] = system: trehalose monomycolates and dimycolates in M. tuberculosis H37Ra; assay: Metabolic labeling with 14C acetate, TLC of lipid profiles (TMM, TDM); type: cell-based, Mycobacterium tuberculosis; settings: 200 μM compound, 14C acetate labeling
From the text: (§3) Figure 5 (A) TLC of the metabolic labeling experiments of M. tuberculosis H37Ra with ^14C acetate treated with the compounds 14, 19, and 23–26 for the analysis of mycolic acid inhibition. Fatty acid methyl esters, FAME; mycolic acid methyl esters, MAME; isoniazid, INH. (B) TLC of the metabolic labeling experiments of M. tuberculosis H37Ra with ^14C acetate treated with the compounds 14, 19, and 23–26 for the analysis of the lipid inhibition. Trehalose monomycolates, TMM; trehalose dimycolates, TDM; phosphatidylethanolamine, PE; cardiolipin, CL; isoniazid, INH.
as §2, with “After 24 h of cultivation with shaking (120 rpm) in the presence of tested inhibitors, ^14C acetate (specific activity of 106 mCi/mmol) was added at a final concentration of 0.5 μCi/mL and the cells were cultivated for the next 24 h.” left out
Lipids were extracted from whole cells as described earlier with minor modifications.[24] […] Five μL of each lipid sample was loaded on the thin-layer chromatography (TLC) silica gel plates (F254, Merck); lipids were separated in chloroform/methanol/water [20:4:0.5] and detected by autoradiography.

[2] = system: synthesis of mycolic acids in M. tuberculosis H37Ra; assay: Metabolic labeling with 14C acetate, TLC of FAME/MAME (mycolic acid synthesis); type: cell-based, Mycobacterium tuberculosis; settings: 200 μM compound, 14C acetate labeling
Procedure: as §1, §3
The culture of M. tuberculosis H37Ra was grown statically at 37 °C in Middlebrook 7H9 broth (Difco) supplemented with albumin–dextrose–catalase and 0.05% Tween 80. […]
Fatty acid methyl esters (FAMEs) and mycolic acids methyl esters (MAMEs) were prepared from whole cells harvested from 4 mL culture aliquots as previously described.[32] […] 3× and detected by autoradiography.

InhA, sequence (P9WGR1 whole entry, looked up, the tested form may be a part): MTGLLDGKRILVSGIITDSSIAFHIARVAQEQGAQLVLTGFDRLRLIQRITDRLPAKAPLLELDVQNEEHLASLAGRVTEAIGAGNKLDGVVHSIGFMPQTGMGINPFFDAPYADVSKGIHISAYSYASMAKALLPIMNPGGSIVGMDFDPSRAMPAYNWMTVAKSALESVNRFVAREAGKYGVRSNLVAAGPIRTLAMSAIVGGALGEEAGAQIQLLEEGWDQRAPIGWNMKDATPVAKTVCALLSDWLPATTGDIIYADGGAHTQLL

NCc1cccc(NS(=O)(=O)/C=C/c2cccc(C(F)(F)F)c2)c1 [compound 19, (E)-N-(3-(Aminomethyl)phenyl)-2-(3-(trifluoromethyl)phenyl)ethene-1-sulfonamide]
inhibition at 200 µM (M. tuberculosis H37Ra): 84% | inhibition at 100 µM (InhA; 100 μM compound, read-out: Inh % (inhibition percentage of InhA)): > 90% | LE (ligand efficiency) (InhA; LE = (1.37 × pIC50)/HA): 0.31 | IC50 (InhA; average of three experiments): 4 µM | inhibition at 100 µM (InhA; supplementary CSV, read-out: % inhibition): > 90% | amount of trehalose dimycolates (TDM) [1]: decrease | amount of trehalose monomycolates (TMM) [1]: accumulation | effect on synthesis of mycolic acids [2]: slight inhibition
